Experiments:
[1] = target: T1, MEX-5 (Caenorhabditis elegans, UniProt Q9XUB2); assay: Fluorescence polarization screening of MEX-5 binding to fluorescein-labeled TCR2 RNA; details: 192 μM test compound; score = polarization relative to no-drug and no-protein controls; 0.25 = 75% inhibition; lowest score = greatest inhibition; read-out: MEX-5 score
T1 construct: The fragment of mex-5 containing the TZF domain (amino acids 236-350) was amplified; made in house; host or cells: Escherichia coli JM109
T1 sequence (Q9XUB2 236-350): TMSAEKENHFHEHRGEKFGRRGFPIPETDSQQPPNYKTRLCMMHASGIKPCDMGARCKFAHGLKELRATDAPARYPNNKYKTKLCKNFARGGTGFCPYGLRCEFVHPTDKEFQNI
Source text: The expression and purification of recombinant MEX-5 protein has previously been described in Pagano, J. M., Farley, B. M., McCoig, L. M. and Ryder, S. P. (2007) “Molecular basis of RNA recognition by the embryonic polarity determinant MEX-5;” J Biol Chem; 282, 8883-8894. The fragment of mex-5 containing the TZF domain (amino acids 236-350) was amplified from a commercially available ORFeome clone (Open Biosystems) and sub-cloned into the vector pMal-c (NEB), which encodes maltose binding protein as an N-terminal fusion. This construct is termed pMal-MEX-5 (236-350).
MEX-5 is expressed in Escherchia. coli JM109 liquid cultures grown at 37° C. Cultures were induced during mid log phase by the addition of 0.1 mM isopropyl 1-thio-β-D-galactopyranoside (IPTG) and allowed to grow for three hours. An amount of 100 μM zinc acetate (final concentration) was added at the time of induction. The pelleted cells were resuspended in lysis buffer (50 mM Tris pH 8.8, 200 mM NaCl, 2 mM DTT, EDTA free protease inhibitor tablet (Roche), 100 μM Zn(OAc)2) and lysed by sonication. The soluble protein was purified in three steps using standard chromatography methods: (1) amylose affinity (NEB), (2) Hi-TRAP-Q (GE Healthcare), and (3) Hi-TRAP-S (GE Healthcare). The Q buffer was composed of 50 mM Tris, pH 8.8, 20 mM-1500 mM NaCl, 2 mM DTT, and 100 μM Zn(OAc)2. The S buffer was composed of 50 mM MOPS, pH 6.0, 20 mM-1500 mM NaCl, 2 mM DTT, 100 μM Zn(OAc)2. The pure fractions, determined by coomassie-stained SDS-PAGE, were dialyzed into storage buffer (20 mM Tris, pH 8.0, 25 mM NaCl, 100 μM Zn(OAc)2, 2 mM DTT). The protein concentration was determined by measuring absorbance at 280 nm and the calculated extinction coefficient. The protein was stored at 50 μM concentration at 4° C.
All RNA oligonucleotides were chemically synthesized by Dharmacon or Integrated DNA Technologies. Upon arrival, each RNA was deprotected and stored according to the manufacturer's instructions. Prior to use, the RNA was resuspended in 10 mM Tris-HCl, pH 8.0, 0.1 mM EDTA, and the concentration determined by UV spectrophotometry using the calculated extinction coefficient at 260 nm based on the specific sequence. The sequence of the MEX-5 binding RNA (TCR2) is […] (SEQ ID NO:1). The POS-1 binding RNA (BMF018) is […] (SEQ ID NO:2). The MEX-3 binding RNA (SEQ 14) is […] (SEQ ID NO:3).
The RNA used for the small molecule screen was labeled at the 3′-end with fluorescein by Dharmacon during synthesis. In a few cases, follow up experiments were performed with post-synthetically labeled RNA. In this case, fluorescein 5-thiosemicarbazide (FTSC, Invitrogen) was used to 3′-end label each RNA after treatment with sodium periodate (see Reines, S. A. and Cantor, C. R. (1974) “New fluorescent hydrazide reagents for the oxidized 3′-terminus of RNA” Nucleic Acids Res. 1, 767-786). A representative 50 μl reaction consisted of 0.5 nanomoles RNA, 100 mM NaOAc, pH 5.1, and 5 nanomoles NaIO4. After the reaction was complete (90 minutes at room temperature), the sample was ethanol precipitated by adding 1 μl RNase free glycogen (Invitrogen 20 μg/μl), 1/20th volume of 5 M NaCl, and 2 volumes of 100% ice-cold ethanol. The resulting pellet was resuspended in 50 μl of 100 mM NaOAc, pH 5.1 containing 1 mM FTSC and was allowed to react overnight at 4° C. in the dark. The unreacted label was removed by ethanol precipitation with resuspension of the pellet in a small volume of TE, and purification over a Roche G-25 size exclusion spin column. The labeling efficiency is determined by calculating the ratio of fluorescein absorbance at 490 nm to RNA-fluorescein absorbance at 260 nm. Typical efficiencies are 60-80%.
The ability of MEX-5 to associate with RNA was monitored by fluorescence polarization using a victor V3 or victor V2V plate reader (Perkin Elmer) in 384-well FluoTrak microplates (Grenier). […]

[2] = target: T2, POS-1 (Caenorhabditis elegans, UniProt G5EF15); assay: Fluorescence polarization screening of POS-1 binding to fluorescein-labeled BMF018 RNA; details: 192 μM test compound; score = polarization relative to no-drug and no-protein controls; 0.25 = 75% inhibition; lowest score = greatest inhibition; read-out: POS-1 score
T2 construct: 6-his tag (N); made in house; host or cells: E. coli BL21 (DE3) Gold
T2 sequence (G5EF15 80-180): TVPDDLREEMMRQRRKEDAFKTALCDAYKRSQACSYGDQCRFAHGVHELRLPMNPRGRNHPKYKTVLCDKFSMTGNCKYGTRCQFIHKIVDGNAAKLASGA

Structure (SMILES) | remaining activity at 192 µM [1] [%] | remaining activity at 192 µM [2] [%]
CCOC(=O)c1ccccc1OC(=O)c1ccc2c(c1)C1C=CCC1C(C(=O)O)N2 (stereo not drawn) [B] | -3.69 | 5.51
CC(=O)Oc1ccc(S(=O)(=O)c2ccc(OC(C)=O)c(OC(C)=O)c2)cc1OC(C)=O [J] | -0.0941 | 8.51
CC1(C)CC(Cc2nnc(S)[nH]2)C(=O)O1 (stereo not drawn) [S] | 5 | 10.5
O=C(Cn1cnc2ccccc2c1=O)Nc1ccc(S(=O)(=O)Nc2nccs2)cc1 [BJ] | 18.2 | 11.9
Cc1n[nH]c(SCc2cccc(CSc3nc(C)n[nH]3)c2)n1 [L] | 1.21 | -0.0864
O=[N+]([O-])c1ccc(S(=O)(=O)Nc2cc(Cl)ccc2O)cc1 [AD] | 8.04 | 8.27
O=C1NN(c2ccc(F)c(Cl)c2)C(=O)/C1=C\c1cccc(OC(=O)c2cccs2)c1 [CX] |  | 4.3
CC(C)(C)c1ccc(C(=O)Nc2ccc(S(=O)(=O)Nc3nccs3)cc2)cc1Br [EV] |  | 27.5
Cc1ccc(CC(=O)Nc2ccc(S(=O)(=O)Nc3nccs3)cc2)cc1 [EK] |  | 23.7
O=C(NC(=S)Nc1ccccc1C(=O)O)c1ccc(-c2ccc(Cl)cc2)o1 [EO] |  | 25.4
CCOc1ccc(C(=O)NC(=S)Nc2ccc(C(=O)O)c(Cl)c2)cc1Br [DK] |  | 14.3
O=[N+]([O-])c1cc(C2Nc3ccc4ccccc4c3C3C=CCC32)ccc1O (stereo not drawn) [DE] |  | 8.86
Cc1cc(OCC(=O)Nc2ccc(S(=O)(=O)Nc3nccs3)cc2)ccc1Br [DT] |  | 17.7
Cc1c(C(=O)NC(=S)Nc2cc(C(=O)O)ccc2Cl)cccc1[N+](=O)[O-] [ER] |  | 26.2
Oc1ccccc1-c1n[nH]c(=S)n1Cc1ccccc1 [ES] |  | 26.5
CCc1nnc(NS(=O)(=O)c2ccc(NCc3cc(Cl)cc(Cl)c3O)cc2)s1 [DH] |  | 11.9
O=C(NC(=S)Nc1ccccc1C(=O)O)c1cc(I)ccc1Cl [DV] |  | 18.5
O=C(NC(=S)Nc1ccc(Cl)c(C(=O)O)c1)c1ccc(-c2ccccc2)cc1 [EH] |  | 23
CCOC(=O)c1c(NC(=O)C2CC=CCC2C(=O)O)sc(C)c1-c1ccc(Cl)cc1 (stereo not drawn) [EA] |  | 20.3
Cc1cc(NS(=O)(=O)c2ccc(Nc3nc(-c4ccc(F)c(C)c4)cs3)cc2)no1 [EN] |  | 24.7
COc1cc(/C=C2/C(=O)N(c3ccc(Cl)c(C(=O)O)c3)N=C2C)ccc1OC(=O)c1cccs1 [DF] |  | 10.1
CC(=O)Nc1nc2ccc(S(=O)(=O)NC(C)=O)cc2s1 [ED] |  | 22
CCOc1ccc(C(=O)NC(=S)Nc2ccccc2C(=O)O)cc1Br [DO] |  | 16.7
Cc1ccc(NS(=O)(=O)c2ccc(F)cc2)c(NS(=O)(=O)c2ccc(F)cc2)c1 [DS] |  | 17.7
O=C(NC(=S)Nc1ccc(C(=O)O)c(Cl)c1)c1ccc(Cl)c(Cl)c1 [DZ] |  | 20.1
CCCCOc1cccc(C(=O)Nc2ccc(S(=O)(=O)Nc3nnc(CC)s3)cc2)c1 [EP] |  | 26
Sc1nnc(-c2cc(-c3ccccc3)nc3ccccc23)o1 [EM] |  | 24.2
CC1=NN(c2ccc(S(N)(=O)=O)cc2)C(=O)/C1=C\c1ccc(OC(=O)c2cccs2)cc1 [DN] |  | 16.7
O=C(Nc1cc(NC(=O)c2ccccc2)cc(C(=O)Nc2ccc(O)cc2C(=O)O)c1)c1ccccc1 [DQ] |  | 17.2

Results, then the molecule that gave them:

remaining activity at 192 µM [1] [%] | remaining activity at 192 µM [2] [%] | Structure (SMILES)
2.3 | 4.77 | CC1(C)Cc2ccccc2-c2[nH]c3nnc(S)n3c(=O)c21 [O]
7.14 | 0.702 | Cc1n[nH]c(SCc2ccc(CSc3nc(C)n[nH]3)cc2)n1 [AA]
6.88 | 12.7 | Cn1c(S)nnc1-c1ccccc1O [Z]
-0.64 | 24.2 | O=C(O)c1ccc(Sc2nnc(-c3cccc(Br)c3)o2)c([N+](=O)[O-])c1 [G]
0.00138 | 5.81 | O=C(Oc1ccc2c(c1)C1C=CCC1C(C(=O)O)N2)c1ccc(Cl)cc1Cl (stereo not drawn) [K]
12.4 | 11.6 | O=[N+]([O-])c1ccc(NS(=O)(=O)c2ccccc2)c(NS(=O)(=O)c2ccccc2)c1 [AQ]
9.13 | 2.5 | O=C(Nc1nnc[nH]1)c1ccccc1O [AI]
5.51 | 8.99 | COc1ccc(NC(=S)c2nc3ccccc3[nH]2)cc1 [T]
 | 23.4 | O=C(O)c1ccc(Cl)c(NC(=S)NC(=O)c2cc(I)ccc2Cl)c1 [EJ]
 | 23.8 | Cc1ccc2c(Cl)c(C(=O)Nc3nnn[nH]3)sc2c1 [EL]
 | 4.35 | O=C(O)c1ccc(NC(=S)NC(=O)c2sc3ccccc3c2Cl)cc1 [CY]
 | 7.5 | NC(=O)c1ccccc1NC(=O)CN(c1cccc(Br)c1)S(=O)(=O)c1ccccc1 [DC]
 | 27.5 | CCOC(=O)c1ccc(N2NC(=O)/C(=C/c3ccc(OC(=O)c4cccs4)c(OC)c3)C2=O)cc1 [EW]
 | 21 | C#CCSc1nc2sc3c(c2c(=O)n1C)CCC3 [EB]
 | 14.3 | CCOC(=O)c1ccc(N2NC(=O)/C(=C/c3cccc(OC(=O)c4cccs4)c3)C2=O)cc1 [DL]
 | 26 | COc1c(Cl)cc(Cl)cc1C(=O)NC(=S)Nc1ccc(C(=O)O)cc1 [EQ]
 | 16.8 | Cc1cc(NS(=O)(=O)c2ccc(NC(=O)c3ccc(C(C)(C)C)c(Br)c3)cc2)no1 [DP]
 | 6.9 | CC1=NN(c2ccc(Cl)c(C(=O)O)c2)C(=O)/C1=C/c1cccc(OC(=O)c2cccs2)c1 [DB]
 | 19 | Cc1ccc(C)c(OCC(=O)Nc2ccc(S(=O)(=O)Nc3nccs3)cc2)c1C [DW]
 | 3.98 | O=C(NC1CCCCCC1)c1ccc(I)cc1 [CW]
 | 19.7 | COc1cc(/C=C2\C(=O)N(c3cccc(C(=O)O)c3)N=C2C)ccc1OC(=O)c1ccco1 [DX]
 | 23 | O=C(O)c1cccc(NC(=S)NC(=O)c2ccc(-c3ccc(Cl)cc3)o2)c1 [EI]
 | 20 | Cc1ccc(S(=O)(=O)NCc2nc3ccccc3[nH]2)cc1 [DY]
